Assay results published in patent publication US20260265199A1, “CRYSTALLINE FORMS OF (R)-2-AMINO-5-(4-(2-(3,5-DIFLUOROPHENYL)-2-HYDROXYACETAMIDO)-2-METHYLPHENYL)-N-ISOPROPYLNICOTINAMIDE AND METHODS FOR USING THE SAME” (HIBERCELL, INC., priority 2023, published 2026).
Structures can show the parent of a compound that is named as a salt. Where two headings read alike, the source gives them in different places.

How the values were obtained:
Type in all cases: physicochemical
[1] = Physical stability of Form C at ambient conditions (XRPD)
Method: The initial samples were then analyzed by XRPD. Thereafter, the vials were sealed and the samples were allowed to sit at ambient conditions for 9, 13, or 25 days (as designated in Table 35). The samples were then reanalyzed by XRPD.

[2] = Slurry study of Form A of the mono-fumarate salt (XRPD of solids)
Method: XRPD patterns of samples were collected using with an X-ray diffractometer (Bruker D8 advance). The system was equipped with LynxEye detector. Samples were scanned from 3 to 40° 2θ, at a step size 0.02° 2θ. The tube voltage and current were 40 KV and 40 mA, respectively.
Slurry studies were conducted using 12 solvents at RT or 50° C. Solid samples were collected by filtration and analyzed by XRPD at a specific time.

[3] = Solubility of mono-fumarate Form A estimated by solvent addition, visual assessment
From the text: The solubility of Form A of the mono-fumarate salt of the compound of formula (I) was estimated using solvent addition method via visual assessment of the samples.

[4] = Variable temperature study of Form B (cycling DSC, VT-XRPD)
Method: XRPD patterns were collected with a PANalytical X'Pert PRO MPD diffractometer using an incident beam of Cu Kα radiation produced using a long, fine-focus source and a nickel filter. The diffractometer was configured using the symmetric Bragg-Brentano geometry. Data were collected and analyzed using Data Collector software v. 5.5. Prior to the analysis, a silicon specimen (NIST SRM 640e) was analyzed to verify the observed position of the Si 111 peak is consistent with the NIST-certified position. A specimen of the sample was packed in a nickel-coated copper well. Anti-scatter slits (SS) were used to minimize the background generated by air scattering. Soller slits for the incident and diffracted beams were used to minimize broadening from axial divergence. Diffraction patterns were collected using a scanning position-sensitive detector (X'Celerator) located 240 mm from the sample. The data acquisition parameters for each pattern are disclosed, including the divergence slit (DS) and the incident-beam SS.
An Anton Paar TTK 450 stage was used to collect in-situ XRPD patterns as a function of temperature. The sample was heated with a resistance heater located directly under the sample holder, and the temperature was monitored with a platinum-100 resistance sensor located in the specimen holder. The heater was powered and controlled by an Anton Paar TCU 100 interfaced with Data Collector.
DSC was performed using a Mettler-Toledo DSC3+ differential scanning calorimeter. A tau lag adjustment was performed with indium, tin, and zinc. The temperature and enthalpy were adjusted with octane, phenyl salicylate, indium, tin, and zinc. The adjustment was then verified with octane, phenyl salicylate, indium, tin, and zinc. The sample was placed into a hermetically sealed aluminum DSC pan, and the weight was accurately recorded. The pan was then inserted into the DSC cell. A weighed aluminum pan configured as the sample pan was placed on the reference side of the cell. The pan lid was pierced prior to sample analysis. Samples were analyzed from −30° C. to 250° C. @ 10°/min. The cyclic DSC method heated from −30° C. to 100° C., returned to −30° C., then heated to 250° C. at 10°/min.
The thermal events associated with heating Form B, prepared according to Example 30, were further investigated by cycling DSC and variable temperature XRPD (FIG. 33 and FIG. 34, respectively). […] This phase transition was confirmed by VT-XRPD (see the diffraction pattern obtained at 100° C. in FIG. 34). During the first DSC cooling cycle, an exotherm at approximately 35° C. was observed. […] During the final DSC heating cycle, Form B first undergoes a phase transition to Material F at approximately 67° C. (endotherm). […] (endotherm) and immediately recrystallize as Form A (exotherm onset at approximately 164° C.). […] Determining which solid form was obtained after recrystallization was confirmed by VT-XRPD (the pattern obtained at approximately 175° C., FIG. 34).
It is believed that this solid state behavior can be explained due to the relative stability of Form B and Material F is reversed in passing the transition temperature. For enantiotropic systems where hysteresis is minimal within the timescale measured, the transition temperature must lie between the onset temperatures of the observed endotherm and exotherm. Therefore, a transition temperature of ~49° C. was estimated from the thermogram with the use of the lever rule.
The XRPD acquisition parameters used to collect the VT-XRPD data presented in Table 33 are as follows: X-ray Tube: Cu (1.54059 Å); voltage: 45 kV; amperage: 40 mA; scan range: 3.50-29.99° 2θ; step size: 0.017° 2θ; scan speed: 1.7° per minute; slit: DS: fixed slit ¼°; SS: fixed slit: ½°; revolution time: 0.0 null; and mode: reflection. The XRPD data collection times for the experiment are specified in Table 33.

Cc1cc(NC(=O)[C@H](O)c2cc(F)cc(F)c2)ccc1-c1cnc(N)c(C(=O)NC(C)C)c1 [Form C, (R)-2-amino-5-(4-(2-(3,5-difluorophenyl)-2-hydroxyacetamido)-2-methylphenyl)-N-isopropylnicotinamide]
Result (XRPD) ([1]; Acetone, ambient conditions, stored for 13 days): Form B (FIG. 38B) | Result (XRPD) ([1]; Acetone, initial sample): Form B + Form C | Result (XRPD) ([1]; MeCN, ambient conditions, stored for 25 days): Form B (FIG. 38D) | Result (XRPD) ([1]; MeCN, initial sample): Form C (FIG. 38C) | Result (XRPD) ([1]; MeCN/water, ambient conditions, stored for 9 days): Form C + Form B | Result (XRPD) ([1]; MeCN/water, initial sample): Form C (FIG. 38E) | Physical stability of Form C (XRPD) ([1]; ambient conditions, irrespective of solvent system used to prepare Form C): desolvates and either partially converts or fully converts to Form B within days | Solid form (XRPD) after storage ([1]; sample obtained from acetonitrile and water, ambient conditions, 9 days): mixture of Form B and Form C | Solid form (XRPD) after storage ([1]; sample obtained from acetonitrile, ambient conditions, 25 days): Form B

Cc1cc(NC(=O)[C@H](O)c2cc(F)cc(F)c2)ccc1-c1cnc(N)c(C(=O)NC(C)C)c1 [Form A of the mono-fumarate salt, (R)-2-amino-5-(4-(2-(3,5-difluorophenyl)-2-hydroxyacetamido)-2-methylphenyl)-N-isopropylnicotinamide]
XRPD result after slurry ([2]; 2-Butanone, 50° C., 2 days): Mono-fumarate Form A | XRPD result after slurry ([2]; 2-Butanone, room temperature, 5 days): Mono-fumarate Form A | XRPD result after slurry ([2]; Acetone, 50° C., 2 days): Mono-fumarate Form A | XRPD result after slurry ([2]; Acetone, room temperature, 5 days): Mono-fumarate Form A | XRPD result after slurry ([2]; EtOAc, 50° C., 2 days): Low crystallinity | XRPD result after slurry ([2]; EtOAc, room temperature, 5 days): Low crystallinity | XRPD result after slurry ([2]; EtOH, room temperature, 5 days): Solid | XRPD result after slurry ([2]; Heptane, 50° C., 2 days): Mono-fumarate Form A | XRPD result after slurry ([2]; Heptane, room temperature, 5 days): Mono-fumarate Form A | XRPD result after slurry ([2]; IPA, 50° C., 2 days): Hemi-fumarate Form A | XRPD result after slurry ([2]; IPA, room temperature, 5 days): Hemi-fumarate Form A | XRPD result after slurry ([2]; IPAc, 50° C., 2 days): Hemi-fumarate Form A | XRPD result after slurry ([2]; IPAc, room temperature, 5 days): Low crystallinity | XRPD result after slurry ([2]; Isobutanol, 50° C., 2 days): Hemi-fumarate Form A | XRPD result after slurry ([2]; Isobutanol, room temperature, 5 days): Hemi-fumarate Form A | XRPD result after slurry ([2]; MTBE, 50° C., 2 days): Hemi-fumarate Form A | XRPD result after slurry ([2]; MTBE, room temperature, 5 days): Low crystallinity | XRPD result after slurry ([2]; MeCN, room temperature, 5 days): Low crystallinity | XRPD result after slurry ([2]; Toluene, 50° C., 2 days): Hemi-fumarate Form A | XRPD result after slurry ([2]; Toluene, room temperature, 5 days): Low crystallinity | XRPD result after slurry ([2]; Water, 50° C., 2 days): Alternative pattern | XRPD result after slurry ([2]; Water, room temperature, 5 days): Alternative pattern | solubility ([3]; EtOAc, organic solvent or mixture, thermodynamic from solid, EtOAc, read-out: Solubility): > 3 mg/mL | solubility ([3]; EtOH, organic solvent or mixture, thermodynamic from solid, EtOH, read-out: Solubility): > 22.5 mg/mL | solubility ([3]; IPA, organic solvent or mixture, thermodynamic from solid, IPA, read-out: Solubility): > 23.4 mg/mL | solubility ([3]; IPAc, organic solvent or mixture, thermodynamic from solid, IPAc, read-out: Solubility): > 2.1 mg/mL | solubility ([3]; MEK, organic solvent or mixture, thermodynamic from solid, MEK, read-out: Solubility): > 11.7 mg/mL | solubility ([3]; MTBE, organic solvent or mixture, thermodynamic from solid, MTBE, read-out: Solubility): > 4.2 mg/mL | solubility ([3]; MeCN, organic solvent or mixture, thermodynamic from solid, MeCN, read-out: Solubility): > 2.2 mg/mL | solubility ([3]; MeOH): >53.2 mg/mL | solubility ([3]; MeOH, organic solvent or mixture, thermodynamic from solid, MeOH, read-out: Solubility): > 50 mg/mL | solubility ([3]; THF): >52.6 mg/mL | solubility ([3]; THF, organic solvent or mixture, thermodynamic from solid, THF, read-out: Solubility): > 50 mg/mL | solubility ([3]; acetone, organic solvent or mixture, thermodynamic from solid, Acetone, read-out: Solubility): > 13.4 mg/mL | solubility ([3]; heptane, organic solvent or mixture, thermodynamic from solid, Heptane, read-out: Solubility): < 1 mg/mL | solubility ([3]; isobutanol, organic solvent or mixture, thermodynamic from solid, Isobutanol, read-out: Solubility): > 11.1 mg/mL | solubility ([3]; toluene, organic solvent or mixture, thermodynamic from solid, Toluene, read-out: Solubility): < 1.1 mg/mL | solubility ([3]; water, thermodynamic from solid, Water, read-out: Solubility): < 1.1 mg/mL

Cc1cc(NC(=O)[C@H](O)c2cc(F)cc(F)c2)ccc1-c1cnc(N)c(C(=O)NC(C)C)c1 [Form B, (R)-2-amino-5-(4-(2-(3,5-difluorophenyl)-2-hydroxyacetamido)-2-methylphenyl)-N-isopropylnicotinamide]
Result (VT-XRPD) ([4]; 30° C., 1st scan in table order): Form B | Result (VT-XRPD) ([4]; 30° C., 4th scan in table order): Material F | Result (VT-XRPD) ([4]; 30° C., 8th scan in table order): Form A | Result (VT-XRPD) ([4]; 75° C., 2nd scan in table order): Form B | Result (VT-XRPD) ([4]; 75° C., 5th scan in table order): Material F | Result (VT-XRPD) ([4]; 100° C., 3rd scan in table order): Material F | Result (VT-XRPD) ([4]; 100° C., 6th scan in table order): Material F | Result (VT-XRPD) ([4]; 175° C., 7th scan in table order): Form A^1 | Relative stability of Form B vs Material F (enantiotropes) ([4]; below the transition temperature): more stable, relative to Material F, below the transition temperature
